Assay results reported in patent US10501562B2, “Co-initiator and co-monomer for use in preparing polymer related compositions, methods of manufacture, and methods of use” (University of Kansas, priority 2015, dated 2019).

Legend:
[1] = during 24 hours; cited from earlier work
[2] = Chemical stability of amine co-initiators by 1H NMR in DMSO-d6/water; type: physicochemical; details: 100 days storage at 25° C., 0.04 M in DMSO-d6/deionized water 80/20 wt/wt
Procedure: The chemical stability of three amine co-initiators (EDMAB, DMAEMA, and TUMA) was characterized by ^1H NMR spectroscopy, which were obtained on a Bruker Advance DRX 500 spectrometer (Bruker AXS Inc., Madison, Wis.) equipped with a broadband probe. Deuterated dimethyl sulfoxide (DMSO-d6)/deionized water (80/20 wt/wt) was used as the solvent. The NMR spectra of 0.04 M amine samples were monitored as a function of storage time at 25° C. The mixed (DMSO/water) solvent was used because of its ability to dissolve EDMAB and TUMA, which are hydrophobic compounds.

degraded (chemical stability) [2] | Compound | degradation in the presence of water [1]
No degradation was detected | CCOC(=O)c1ccc(N(C)C)cc1 [EDMAB, Ethyl-4-(dimethylamino) benzoate] | –
No degradation was detected | C=C(C)C(=O)OCCNC(=O)OC(C)CN(CC(C)OC(=O)NCCOC(=O)C(=C)C)CC(C)OC(=O)NCCOC(=O)C(=C)C (stereo not shown) [TUMA, 8-(2-(((2-(methacryloyloxy)ethyl)carbamoyl)oxy)propyl)-6,10-dimethyl-4,12-dioxo-5,11-dioxa-3,8,13-triazapentadecane-1,15-diyl bis(2-methylacrylate)] | –

Compound | degraded (chemical stability) [2] | degradation in the presence of water [1]
C=C(C)C(=O)OCCN(C)C [DMAEMA, 2-(dimethylamino) ethyl methacrylate] | 37.6% | up to 82%
